Values of other authors as cited in PMC7503219 (International journal of hematology, 2019).

System: GATA-1low mice
Conditions: GATA-1 mouse model of PMF

N#CCCN [BAPN, β-aminopropionitrile]
effect on myelofibrotic phenotype: reduced the pathogenesis of the myelofibrotic phenotype
